Measurements as given in US20120301895A1, “METHODS OF MODULATING BINDING OF SON OF SEVENLESS TO PHOSPHATIDIC ACID AND IDENTIFYING COMPOUNDS THAT MODULATE SUCH BINDING” (THE RESEARCH FOUNDATION OF STATE UNIVERSITY OF NEW YORK, priority 2007, published 2012).

Key:
MDA-MB-231 cells = assay: Cell viability (trypan blue) and PARP cleavage in MDA-MB-231 cells; type: cell-based, human; conditions: honokiol 20 μM
Procedure: MDA-MB-231 cells were plated in DMEM with 10% serum for 48 hr then changed to DMEM with either 10% or 0.5% serum overnight as indicated. Honokiol (20 μM) or control ethanol was then added either at the time of changing media (24 hr time point), or 4 hr prior to harvesting (4 hr time point) as indicated. The cells were then examined for cell viability and PARP cleavage as described previously (Chen et al., “Alternative Phospholipase D/mTOR Survival Signal in Human Breast Cancer Cells,” Oncogene 24:672-9 (2005), which is hereby incorporated by reference in its entirety). The Western blot is representative of at least three independent experiments. The error bars for cell viability represent the standard deviation for triplicate samples from a representative experiment repeated three times.
Cell viability was determined by trypan blue exclusion. After various treatments, cells were harvested, washed, and treated with trypan blue at a concentration of 0.4% w/v. After 10 min, trypan blue uptake (dead cells) was determined by counting on a hemocytometer. Apoptosis was evaluated by examination of cleavage of the caspase 3 substrate PARP as described previously (Chen et al., “Alternative Phospholipase D/mTOR Survival Signal in Human Breast Cancer Cells,” Oncogene 24:672-9 (2005), which is hereby incorporated by reference in its entirety).
The effect of honokiol on cell viability and cleavage of the caspase 3 substrate poly-(ADP-ribose) polymerase (“PARP”)—an indicator of apoptotic cell death—was examined in the MDA-MB-231 and 786-0 cells. The effect of honokiol on cell viability and PARP cleavage in 0.5% serum was examined after 4 hr and 24 hr honokiol treatment and in 10% serum after 24 hr honokiol treatment in the MDA-MB-231 cells. […] Importantly, the cells were still viable after 4 hr of honokiol treatment—the time point used in FIGS. 12 and 13 where the effect of honokiol upon PLD activity and on S6K and 4E-BP1 phosphorylation was examined.

[1] = tested on: human prostate cancer cells; conditions: Shigemura et al. 2007; cited from earlier work
HIF2α = HIF2α expression in 786-O cells (Western blot); type: cell-based, human; conditions: 0.5% serum, 4 hr, honokiol 20 μM, 1-BtOH 0.8%
Description: The effect of honokiol on HIF2α expression was examined in these cells.

S6K and 4E-BP1 = assay: Phosphorylation of mTOR substrates S6K and 4E-BP1 in MDA-MB-231 cells (Western blot); type: cell-based, human; conditions: honokiol 20 μM, 0.5% serum
Procedure: In FIG. 15A, MDA-MB-231 cells were plated in DMEM with 10% serum. 48 hr later the cells were shifted to 0.5% for 16 hr. Honokiol (20 μM) or control ethanol was then added for the indicated times. The cells were then harvested and analyzed for levels of S6K, phosphorylated S6K (P-S6K), 4E-BP1, and P-4E-BP1 by Western blot analysis as described previously (Zheng et al., “Phospholipase D Couples Survival and Migration Signals in Response to Stress in Human Breast Cancer Cells,” J. Biol. Chem. 281:15862-8 (2006), which is hereby incorporated by reference in its entirety). In FIG. 15B, 786-O cells were plated and then shifted to media containing 0.5% serum 24 hr later. 18 hr later, the cells were treated with 1-Bt0H (0.8%), honokiol (Hon) (20 μM), and t-BtOH (0.8%) as indicated. Cell lysates were prepared 4 hr later and examined for HIF2α and actin expression by Western lot analysis. The experiment shown is representative of two independent experiments.
Extraction of proteins from cultured cells and Western blot analysis of extracted proteins was performed using the ECL system (Amersham) as described previously (Chen et al., “Alternative Phospholipase D/mTOR Survival Signal in Human Breast Cancer Cells,” Oncogene 24:672-9 (2005), which is hereby incorporated by reference in its entirety). […]

786-0 cells = assay: Apoptosis in 786-O cells; type: cell-based, human
Procedure: Cell viability was determined by trypan blue exclusion. After various treatments, cells were harvested, washed, and treated with trypan blue at a concentration of 0.4% w/v. After 10 min, trypan blue uptake (dead cells) was determined by counting on a hemocytometer. […] The effect of honokiol on cell viability and cleavage of the caspase 3 substrate poly-(ADP-ribose) polymerase (“PARP”)—an indicator of apoptotic cell death—was examined in the MDA-MB-231 and 786-0 cells. The effect of honokiol on cell viability and PARP cleavage in 0.5% serum was examined after 4 hr and 24 hr honokiol treatment and in 10% serum after 24 hr honokiol treatment in the MDA-MB-231 cells.

C=CCc1ccc(O)c(-c2ccc(O)c(CC=C)c2)c1 [honokiol, Honokiol]
cell viability (MDA-MB-231 cells; 4 hr, 0.5% serum): still viable
PARP cleavage (MDA-MB-231 cells; 24 hr, 0.5% serum): increased
cell viability (MDA-MB-231 cells; 24 hr, 0.5% serum): reduced
PARP cleavage increased (MDA-MB-231 cells; 24 hr, 10% serum): not
cell viability reduced (MDA-MB-231 cells; 24 hr, 10% serum): not
bone metastatic growth of human prostate cancer cells [1]: inhibit the bone metastatic growth
HIF2α expression (HIF2α): suppresses
phosphorylation of 4E-BP1 (S6K and 4E-BP1): suppressed
phosphorylation of S6K (S6K and 4E-BP1): suppressed
apoptosis (786-0 cells): induced apoptosis
